Measured values: ChEMBL document CHEMBL1201862, “PubChem BioAssay data set” (2004)
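In this assay, cells in 96-well plates receive the compound at five concentrations for 48 hours. Endpoints are linearly interpolated between the surrounding concentrations. At the GI50, growth is halved.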 Active and inactive are the calls of the source. Rule as the data show it: active = GI50 up to about 1.1 µM and inactive = higher.

Experiments:
Assay in all cases: DTP human tumour cell line panel, 48 h
ACHN = test system: ACHN
SN12C = test system: SN12C
HCC 2998 = test system: HCC 2998
OVCAR-8 = test system: OVCAR-8
NCI-H23 = test system: NCI-H23
HCT-15 = test system: HCT-15
NCI-H522 = test system: NCI-H522
LXFL 529 = test system: LXFL 529
HOP-62 = test system: HOP-62
SK-MEL-28 = test system: SK-MEL-28
EKVX = test system: EKVX
SF-268 = test system: SF-268
SK-OV-3 = test system: SK-OV-3
HT-29 = test system: HT-29
U-251 = test system: U-251
PC-3 = test system: PC-3
Malme-3M = test system: Malme-3M
RXF 393 = test system: RXF 393
Hs-578T = test system: Hs-578T
MCF7 = test system: MCF7

SMILES	GI50 (ACHN)	GI50 (SN12C)	GI50 (HCC 2998)	GI50 (OVCAR-8)	GI50 (NCI-H23)	GI50 (HCT-15) [µM]	GI50 (NCI-H522)	GI50 (LXFL 529)	GI50 (HOP-62)	GI50 (SK-MEL-28)	GI50 (EKVX)	GI50 (SF-268)	GI50 (SK-OV-3)	GI50 (HT-29)	GI50 (U-251)	GI50 (PC-3)	GI50 (Malme-3M)	GI50 (RXF 393)	GI50 (Hs-578T)	GI50 (MCF7)
CCN1CCC(O)(c2ccc(OC)cc2)C(C(=O)c2ccc(OC)cc2)C1 (stereo not given)	16.4 µM (inactive)	20 µM (inactive)	19.4 µM (inactive)	22.3 µM (inactive)	17.7 µM (inactive)	20.3	1.97 µM (inactive)	20 µM (inactive)	> 100 µM (inactive)	3.25 µM (inactive)	30.5 µM (inactive)	20.6 µM (inactive)	> 100 µM (inactive)	22 µM (inactive)	16.7 µM (inactive)					
CN(C)C=C1C(=O)c2c(Br)sc(Br)c2C1=O	29.6 µM (inactive)	45.6 µM (inactive)	13 µM (inactive)	22.9 µM (inactive)	15.1 µM (inactive)	18.1	15.9 µM (inactive)		27.9 µM (inactive)	15.3 µM (inactive)	18.9 µM (inactive)	15.7 µM (inactive)	22 µM (inactive)	28.8 µM (inactive)	19.1 µM (inactive)	20.7 µM (inactive)	14.3 µM (inactive)	17.5 µM (inactive)	15.6 µM (inactive)	33.7 µM (inactive)
CCC(C)OC(=O)/C(Br)=C1/OC(=O)c2ccccc2-c2ccccc21 (stereo not given)	40.1 µM (inactive)	34.2 µM (inactive)	16.9 µM (inactive)	37.6 µM (inactive)	50 µM (inactive)	18	18.7 µM (inactive)		15.9 µM (inactive)	30.1 µM (inactive)	> 100 µM (inactive)	56.4 µM (inactive)	45.6 µM (inactive)	23.2 µM (inactive)	> 10 µM (inactive)	31.8 µM (inactive)	29.7 µM (inactive)	9.75 µM (inactive)	45.4 µM (inactive)	41 µM (inactive)
C[C@]12CC[C@H]3[C@@H](CCC4=CC(=O)C=C[C@@]43OC(=O)C(F)(F)F)[C@@H]1CCC2=O	> 100 µM (inactive)	> 100 µM (inactive)	> 100 µM (inactive)	> 100 µM (inactive)	> 100 µM (inactive)	> 100	> 84.1 µM (inactive)		> 100 µM (inactive)	> 100 µM (inactive)	> 100 µM (inactive)	> 100 µM (inactive)	> 100 µM (inactive)	> 100 µM (inactive)	> 100 µM (inactive)	> 100 µM (inactive)	0.558 µM (active)	> 100 µM (inactive)	> 100 µM (inactive)	> 100 µM (inactive)
N#CCc1nnc(N)o1	> 100 µM (inactive)	> 100 µM (inactive)			> 100 µM (inactive)	> 100	> 100 µM (inactive)	> 100 µM (inactive)		> 100 µM (inactive)	> 100 µM (inactive)	> 100 µM (inactive)	> 100 µM (inactive)		> 100 µM (inactive)		> 100 µM (inactive)			
Cc1cc(=O)oc2c(CNC(CC(C)C)C(=O)O)c(O)ccc12 (stereo not given)	> 100 µM (inactive)	> 100 µM (inactive)	> 100 µM (inactive)	> 100 µM (inactive)	> 100 µM (inactive)	> 100	> 100 µM (inactive)		> 100 µM (inactive)	> 100 µM (inactive)	> 100 µM (inactive)	> 100 µM (inactive)	> 100 µM (inactive)	> 100 µM (inactive)	> 100 µM (inactive)	> 100 µM (inactive)	87.5 µM (inactive)	> 100 µM (inactive)	> 100 µM (inactive)	> 100 µM (inactive)
CC(C)(C)C#CI1OC(=O)c2ccccc21	2.9 µM (inactive)	5.2 µM (inactive)	9.53 µM (inactive)	4.36 µM (inactive)	3.48 µM (inactive)	3.38	1.76 µM (inactive)		10 µM (inactive)	4.34 µM (inactive)	4.89 µM (inactive)	4.34 µM (inactive)	11.4 µM (inactive)	4.16 µM (inactive)	4.84 µM (inactive)	6.31 µM (inactive)	3.03 µM (inactive)	3.62 µM (inactive)	8.75 µM (inactive)	4.03 µM (inactive)
NC(=O)c1ccc(S(=O)(=NS(=O)(=O)c2ccccc2)c2ccc(C(N)=O)cc2)cc1	> 100 µM (inactive)	> 100 µM (inactive)	> 100 µM (inactive)	> 100 µM (inactive)	> 100 µM (inactive)	> 100	> 100 µM (inactive)		> 100 µM (inactive)	> 100 µM (inactive)	> 100 µM (inactive)	> 100 µM (inactive)	> 100 µM (inactive)	> 100 µM (inactive)	> 100 µM (inactive)	> 100 µM (inactive)	> 100 µM (inactive)	> 100 µM (inactive)	> 100 µM (inactive)	> 100 µM (inactive)
CC(C)(CN1CCCCC1)C(/C=C/c1ccc(Cl)c(Cl)c1)=N\NC(=O)N/N=C(/C=C/c1ccc(Cl)c(Cl)c1)C(C)(C)CN1CCCCC1	1.89 µM (inactive)	1.77 µM (inactive)	1.69 µM (inactive)	1.87 µM (inactive)	1.93 µM (inactive)	1.08	1.82 µM (inactive)		1.87 µM (inactive)	1.72 µM (inactive)	1.64 µM (inactive)	1.57 µM (inactive)	1.92 µM (inactive)	0.361 µM (active)	1.69 µM (inactive)	> 10 µM (inactive)	1.55 µM (inactive)	0.659 µM (active)	1.81 µM (inactive)	1.54 µM (inactive)
O=C1C(Br)=C(Br)C(=O)c2c(O)ccc(O)c21	2.48 µM (inactive)	7.66 µM (inactive)	19.8 µM (inactive)	8.83 µM (inactive)	4.67 µM (inactive)	2.19	0.287 µM (active)		9.38 µM (inactive)	2.06 µM (inactive)	20.7 µM (inactive)	16.9 µM (inactive)	20 µM (inactive)	3.15 µM (inactive)	16.4 µM (inactive)	15.4 µM (inactive)	1.45 µM (inactive)	2.65 µM (inactive)	27.1 µM (inactive)	2.42 µM (inactive)
CCN(CC)c1ccc2cc(C(N)=O)/c(=N/c3ccc(F)cc3)oc2c1	40.8 µM (inactive)	45.4 µM (inactive)	59.2 µM (inactive)	22.8 µM (inactive)	13.4 µM (inactive)	59.8	11.6 µM (inactive)		28 µM (inactive)	> 100 µM (inactive)	81.5 µM (inactive)	39.5 µM (inactive)	58.6 µM (inactive)	6.95 µM (inactive)	38.5 µM (inactive)	77.1 µM (inactive)	98.2 µM (inactive)	22.8 µM (inactive)	47.9 µM (inactive)	51.4 µM (inactive)
Oc1c(CN2CCOCC2)ccc2cccnc12	> 10 µM (inactive)	> 10 µM (inactive)	> 10 µM (inactive)	> 10 µM (inactive)	> 10 µM (inactive)	4.59	2.62 µM (inactive)		> 10 µM (inactive)	> 10 µM (inactive)	> 10 µM (inactive)	> 10 µM (inactive)	> 10 µM (inactive)	> 10 µM (inactive)	> 10 µM (inactive)	> 10 µM (inactive)	> 10 µM (inactive)	> 10 µM (inactive)	> 10 µM (inactive)	4.14 µM (inactive)
C=C1CC(c2ccc(O)c(OC)c2)Oc2c(OC)cccc21 (stereo not given)	47.4 µM (inactive)	34.4 µM (inactive)	> 100 µM (inactive)	31.1 µM (inactive)	32.9 µM (inactive)	34	10.7 µM (inactive)	26.2 µM (inactive)	85.3 µM (inactive)	43.5 µM (inactive)	40.6 µM (inactive)	33 µM (inactive)	> 100 µM (inactive)	55 µM (inactive)	30.7 µM (inactive)					
NCC(=O)NC(CO)C(=O)O (stereo not given)	> 100 µM (inactive)	> 100 µM (inactive)	> 100 µM (inactive)	> 100 µM (inactive)	> 100 µM (inactive)	> 100	> 100 µM (inactive)		> 100 µM (inactive)	> 100 µM (inactive)	> 100 µM (inactive)	> 100 µM (inactive)	> 100 µM (inactive)	> 100 µM (inactive)	> 100 µM (inactive)	> 100 µM (inactive)	> 100 µM (inactive)	> 100 µM (inactive)	> 100 µM (inactive)	> 100 µM (inactive)
CC(NNC(=O)c1cc[n+]([BH2-]C#N)cc1)c1ccccc1 (stereo not given)	> 100 µM (inactive)	> 100 µM (inactive)	> 100 µM (inactive)	> 100 µM (inactive)	> 100 µM (inactive)	> 100	> 100 µM (inactive)		> 100 µM (inactive)	> 100 µM (inactive)	> 100 µM (inactive)	> 100 µM (inactive)	> 100 µM (inactive)	> 100 µM (inactive)	> 100 µM (inactive)	> 100 µM (inactive)	> 100 µM (inactive)	> 100 µM (inactive)	> 100 µM (inactive)	> 100 µM (inactive)
C=C1C[C@]23CCC4C(C)(C)C(=O)CC[C@]4(C)C2C[C@H]1C(O)C3=O (stereo not given in full)	> 75 µM (inactive)	> 75 µM (inactive)		> 75 µM (inactive)	> 75 µM (inactive)	> 75	> 75 µM (inactive)	> 75 µM (inactive)	> 75 µM (inactive)	> 75 µM (inactive)	> 75 µM (inactive)	> 75 µM (inactive)	> 75 µM (inactive)		> 75 µM (inactive)		> 75 µM (inactive)	> 75 µM (inactive)		
